This is an account of results in patent US10112941B2, “Tricyclic compounds as anticancer agents” (BRISTOL-MYERS SQUIBB COMPANY, priority 2013, dated 2018).

In the experiment the target is BRD4 (Homo sapiens, UniProt O60885). Kind of experiment: Time Resolved Fluorescence Resonance Energy Transfer (TR-FRET) binding assay, BRD4. Conditions: one of the FRET assays described; read-out: FRET BRD4 IC50. (Time-resolved FRET reads energy transfer from a long-lived donor to a nearby acceptor.)

pIC50: −log10 of the molar value.

Usually pIC50 stands for the IC50 on a negative log10 scale, so that one unit is a factor of ten. In the case of `Cc1cc(C(C2CCOCC2)n2c3cc(C(C)(C)O)ccc3c3ncc(-c4c(C)nnn4C)cc32)no1` (single isomer, unassigned) [Example 287, 2-[3-(Dimethyl-1H-1,2,3-triazol-5-yl)-5-[(5-methyl-1,2-oxazol-3-yl)(oxan-4-yl)methyl]-5H-pyrido[3,2-b]indol-7-yl]propan-2-ol], the pIC50 was more than 7.60.
Under `Cc1nnn(C)c1-c1cnc2c3ccc(C(C)(C)O)c(F)c3n(C(c3ccncc3F)C3CCOCC3)c2c1` (single isomer, unassigned) [Example 288] stands more than 8.30; under `Cc1nnn(C)c1-c1cnc2c3ccc(C(C)(C)O)c(F)c3n(C(c3ccncc3F)C3CCOCC3)c2c1` (single isomer, unassigned) [Example 289], more than 8.30.
As to `Cc1cc(C(C2CCOCC2)n2c3cc(-c4c(C)nnn4C)cnc3c3ccc(C(C)(C)O)c(F)c32)no1` (single isomer, unassigned) [Example 290], the pIC50 was more than 8.30.
The result for `Cc1nnn(C)c1-c1cnc2c3ccc(C(C)(C)O)cc3n(C(c3ncccn3)C3CCOCC3)c2c1` (single isomer, unassigned) [Example 292] reads more than 8.30; that for `Cc1nnn(C)c1-c1cnc2c3ccc(C(C)(C)O)cc3n(C(c3ncccc3F)C3CCOCC3)c2c1` (single isomer, unassigned) [Example 293], more than 8.30.
As for `Cc1nnn(C)c1-c1cnc2c3ccc(C(C)(C)O)cc3n(C(c3ncccc3F)C3CCOCC3)c2c1` (single isomer, unassigned) [Example 294], the pIC50 was more than 8.30.
For the molecule `Cc1cccc(C(C2CCOCC2)n2c3cc(C(C)(C)O)ccc3c3ncc(-c4c(C)nnn4C)cc32)n1` (single isomer, unassigned) [Example 295], the pIC50 was more than 8.30.
Regarding `Cc1nnn(C)c1-c1cnc2c3ccc(C(C)(C)O)cc3n(C(c3cccnn3)C3CCOCC3)c2c1` (single isomer, unassigned) [Example 296], the pIC50 was more than 8.30.
The result for `Cc1nnn(C)c1-c1cnc2c3ccc(C(C)(C)O)cc3n(C(c3cc(Cl)ccn3)C3CCOCC3)c2c1` (single isomer, unassigned) [Example 297] reads more than 8.30; that for `Cc1nnn(C)c1-c1cnc2c3ccc(C(C)(C)O)cc3n(C(c3cc(Cl)ccn3)C3CCOCC3)c2c1` (single isomer, unassigned) [Example 298], more than 7.60; that for `Cc1noc(C(C2CCOCC2)n2c3cc(C(C)(C)O)ccc3c3ncc(-c4c(C)nnn4C)cc32)n1` (single isomer, unassigned) [Example 299], more than 8.30.
For the molecule `Cc1noc(C(C2CCOCC2)n2c3cc(C(C)(C)O)ccc3c3ncc(-c4c(C)nnn4C)cc32)n1` (single isomer, unassigned) [Example 300], the pIC50 is more than 7.60.
`Cc1cccnc1C(C1CCOCC1)n1c2cc(C(C)(C)O)ccc2c2ncc(-c3c(C)nnn3C)cc21` (single isomer, unassigned) [Example 301]: the pIC50 is more than 8.30.
Consider `Cc1cccnc1C(C1CCOCC1)n1c2cc(C(C)(C)O)ccc2c2ncc(-c3c(C)nnn3C)cc21` (single isomer, unassigned) [Example 302], for which the pIC50 is more than 8.30.
For the molecule `Cc1nnn(C)c1-c1cnc2c3ccc(C(C)(C)O)cc3n(C(c3ncccc3Cl)C3CCOCC3)c2c1` (single isomer, unassigned) [Example 303], the pIC50 was more than 8.30.
For the molecule `Cc1nnn(C)c1-c1cnc2c3ccc(C(C)(C)O)cc3n(C(c3ncccc3Cl)C3CCOCC3)c2c1` (single isomer, unassigned) [Example 304], the pIC50 is more than 8.30.
`Cc1nnn(C)c1-c1cnc2c3ccc(C(C)(C)O)c(F)c3n(C(c3ncccc3F)C3CCOCC3)c2c1` (single isomer, unassigned) [Example 305]: the pIC50 is more than 8.30.
The result for `Cc1cc(C(C2CCOCC2)n2c3cc(C(C)(C)O)ccc3c3ncc(-c4c(C)noc4C)cc32)no1` (single isomer, unassigned) [Example 306] reads more than 8.30.
Regarding `Cc1cc(C(C2CCOCC2)n2c3cc(C(C)(C)O)ccc3c3ncc(-c4c(C)noc4C)cc32)no1` (single isomer, unassigned) [Example 307], the pIC50 is more than 7.60.
Regarding `[2H]C([2H])([2H])c1nnn(C)c1-c1cnc2c3ccc(C(C)(C)O)cc3n(C(c3ccncc3F)C3CCOCC3)c2c1` (single isomer, unassigned) [Example 310], the pIC50 is more than 8.30.
On to `[2H]C([2H])([2H])c1nnn(C)c1-c1cnc2c3ccc(C(C)(C)O)cc3n(C(c3ccncc3F)C3CCOCC3)c2c1` (single isomer, unassigned) [Example 311], for which the pIC50 was more than 8.30.
Consider `[2H]C([2H])([2H])c1nnn(C)c1-c1cnc2c3c(OC)cc(C(C)(C)O)cc3n(C(c3cc(C)on3)C3CCOCC3)c2c1` (single isomer, unassigned) [Example 312], for which the pIC50 was more than 8.30.
Under `[2H]C([2H])([2H])c1nnn(C)c1-c1cnc2c3cc(F)c(C(C)(C)O)cc3n(C(c3cc(C)on3)C3CCOCC3)c2c1` (single isomer, unassigned) [Example 313] stands more than 8.30; under `[2H]C([2H])([2H])c1nnn(C)c1-c1cnc2c3ccc(C(C)(C)O)c(F)c3n(C(c3cc(C)on3)C3CCOCC3)c2c1` (single isomer, unassigned) [Example 314], more than 8.30; under `[2H]C([2H])([2H])c1nnn(C)c1-c1cnc2c3ccc(C(C)(C)O)cc3n(C(c3ncccc3F)C3CCOCC3)c2c1` (single isomer, unassigned) [Example 315], more than 8.30.
As for `[2H]C([2H])([2H])c1nnn(C)c1-c1cnc2c3ccc(C(C)(C)O)cc3n(C(c3ncccc3F)C3CCOCC3)c2c1` (single isomer, unassigned) [Example 316], the pIC50 is more than 8.30.
With `[2H]C([2H])([2H])c1nnn(C)c1-c1cnc2c3ccc(C(C)(C)O)cc3n(C(c3ccc(F)cn3)C3CCOCC3)c2c1` (single isomer, unassigned) [Example 317], the pIC50 is more than 8.30.
Regarding `[2H]C([2H])([2H])c1nnn(C)c1-c1cnc2c3ccc(C(C)(C)O)cc3n(C(c3ncccc3C(F)(F)F)C3CCOCC3)c2c1` (single isomer, unassigned) [Example 318], the negative-log IC50 (pIC50) was more than 8.30.
For the molecule `[2H]C([2H])([2H])c1nnn(C)c1-c1cnc2c3ccc(C(C)(C)O)cc3n(C(c3ncccc3C(F)(F)F)C3CCOCC3)c2c1` (single isomer, unassigned) [Example 319], the pIC50 is more than 8.30.
On to `[2H]C([2H])([2H])c1nnn(C)c1-c1cnc2c3ccc(C(C)(C)O)cc3n(C(c3ccc(Cl)cn3)C3CCOCC3)c2c1` (single isomer, unassigned) [Example 320], for which the pIC50 is more than 8.30.
Under `[2H]C([2H])([2H])c1nnn(C)c1-c1cnc2c3ccc(C(C)(C)O)cc3n(C(c3ncccc3Cl)C3CCOCC3)c2c1` (single isomer, unassigned) [Example 321] stands more than 8.30; under `[2H]C([2H])([2H])c1nnn(C)c1-c1cnc2c3ccc(C(C)(C)O)cc3n(C(c3ncccc3Cl)C3CCOCC3)c2c1` (single isomer, unassigned) [Example 322], more than 8.30; under `[2H]C([2H])([2H])c1nnn(C)c1-c1cnc2c3ccc(C(C)(C)O)c(F)c3n(C(c3ccc(F)cn3)C3CCOCC3)c2c1` (single isomer, unassigned) [Example 323], more than 7.60.
Turning to `[2H]C([2H])([2H])c1nnn(C)c1-c1cnc2c3ccc(C(C)(C)O)c(F)c3n(C(c3ccc(F)cn3)C3CCOCC3)c2c1` (single isomer, unassigned) [Example 324], the negative-log IC50 (pIC50) is more than 7.60.
Take `[2H]C([2H])([2H])c1nnn(C)c1-c1cnc2c3cc(F)c(C(C)(C)O)cc3n(C(c3cc(OC)ccn3)C3CCOCC3)c2c1` (single isomer, unassigned) [Example 325]: the negative logarithm of the IC50 (pIC50) was more than 8.30.
Regarding `[2H]C([2H])([2H])c1nnn(C)c1-c1cnc2c3cc(F)c(C(C)(C)O)cc3n(C(c3cc(OC)ccn3)C3CCOCC3)c2c1` (single isomer, unassigned) [Example 326], the pIC50 was more than 7.60.
As for `Cc1cc(C(C2CCOCC2)n2c3cc(C(C)(C)O)ccc3c3ncc(-c4c(C)nnn4C)cc32)n(C)n1` (single isomer, unassigned) [Example 341, 2-[3-(Dimethyl-1H-1,2,3-triazol-5-yl)-5-[(1,3-dimethyl-1H-pyrazol-5-yl)(oxan-4-yl)methyl]-5H-pyrido[3,2-b]indol-7-yl]propan-2-ol], the pIC50 is more than 8.30.
For `Cc1cc(C(C2CCOCC2)n2c3cc(C(C)(C)O)ccc3c3ncc(-c4c(C)nnn4C)cc32)n(C)n1` (single isomer, unassigned) [Example 342, 2-[3-(Dimethyl-1H-1,2,3-triazol-5-yl)-5-[(1,3-dimethyl-1H-pyrazol-5-yl)(oxan-4-yl)methyl]-5H-pyrido[3,2-b]indol-7-yl]propan-2-ol], the pIC50 was more than 7.60.
As to `Cc1noc(C)c1-c1cnc2c3ccc(C(C)(C)O)cc3n(C(c3ncccc3F)C3CCOCC3)c2c1` (single isomer, unassigned) [Example 345, 2-[3-(Dimethyl-1,2-oxazol-4-yl)-5-[(3-fluoropyridin-2-yl)(oxan-4-yl)methyl]-5H-pyrido[3,2-b]indol-7-yl]propan-2-ol], the negative logarithm of the IC50 (pIC50) is more than 8.30.
As to `Cc1noc(C)c1-c1cnc2c3ccc(C(C)(C)O)cc3n(C(c3ncccc3F)C3CCOCC3)c2c1` (single isomer, unassigned) [Example 346, 2-[3-(Dimethyl-1,2-oxazol-4-yl)-5-[(3-fluoropyridin-2-yl)(oxan-4-yl)methyl]-5H-pyrido[3,2-b]indol-7-yl]propan-2-ol], the pIC50 was more than 8.30.
For `Cc1noc(C)c1-c1cnc2c3ccc(C(O)CC#N)cc3n([C@H](c3ccccc3)C3CCOCC3)c2c1` (single isomer, unassigned) [Example 373], the pIC50 was more than 8.30.
For `Cc1noc(C)c1-c1cnc2c3ccc(C(O)CC#N)cc3n([C@H](c3ccccc3)C3CCOCC3)c2c1` (single isomer, unassigned) [Example 374], the negative logarithm of the IC50 (pIC50) is more than 8.30.
Turning to `Cc1nnn(C)c1-c1cnc2c3ccc(C(C)(C)O)cc3n(C(CC3CC3)C3CCOCC3)c2c1` (single isomer, unassigned) [Example 394], the pIC50 is more than 8.30.
